We go through four molecules from US20130343993A1, “RADIOLABELED 5-HT6 LIGANDS” (AbbVie Inc., priority 2012, published 2013).

One series addresses T1, h-5-HT6 receptor (Homo sapiens, UniProt P50406).
T1 construct: expressed in transfected cells
In words: 5-HT6 receptor binding assay ([3H]-LSD displacement, HEK293 membranes). How it is done:
The cells were collected by centrifugation at 500 g for 10 min. at 4° C., washed with PBS and centrifuged (500 g, 10 min. 4° C.). The pellets were stored at −80° C. until use. For membrane preparation, the thawed cell pellet was resuspended in ice-cold sucrose buffer (0.25 M sucrose, 10 mM Hepes (pH 7.4), 1 mM Phenylmethylsulfonyl fluoride (PMSF) in DMSO, […] Pepstatin-A, 3 mM EDTA, 0.025% Bacitracin) and homogenized with a Branson Sonifier W-250 (Settings: Timer 4; Output Control 3; Duty Cycle constant; 2 to 3 cycles). Cell disruption was checked with the aid of a microscope. Remaining unbroken cells were pelleted at 1,000 g for 10 min. at 4° C. […] Protein concentration was determined (BCA-Kit; Pierce) and aliquots stored at −80° C. or in liquid nitrogen for long-term storage.
(§1) All receptor binding experiments were carried out in the corresponding assay buffer in a total volume of 200 μl in the presence of various concentrations of test compound (10^−5 M to 10^−9 M, tenfold serial dilution, duplicate determinations). […] Radioactivity was measured in a Microbeta Trilux two hours after the addition of the scintillation mixture. […]
Data derived from liquid scintillation counting were analyzed by iterative non-linear regression analysis with the use of the Statistical Analysis System (SAS): a program similar to “LIGAND” as described by Munson and Rodbard (Anal. Biochem. 1980, 107, 220-239). […]

The target of the next series is T2, h-5-HT2A receptor (Homo sapiens, UniProt P28223).
T2 construct: purchased Perkin Elmer ES-313-M400UA; host or cells: CHO-K1
T2 sequence (P28223 whole entry): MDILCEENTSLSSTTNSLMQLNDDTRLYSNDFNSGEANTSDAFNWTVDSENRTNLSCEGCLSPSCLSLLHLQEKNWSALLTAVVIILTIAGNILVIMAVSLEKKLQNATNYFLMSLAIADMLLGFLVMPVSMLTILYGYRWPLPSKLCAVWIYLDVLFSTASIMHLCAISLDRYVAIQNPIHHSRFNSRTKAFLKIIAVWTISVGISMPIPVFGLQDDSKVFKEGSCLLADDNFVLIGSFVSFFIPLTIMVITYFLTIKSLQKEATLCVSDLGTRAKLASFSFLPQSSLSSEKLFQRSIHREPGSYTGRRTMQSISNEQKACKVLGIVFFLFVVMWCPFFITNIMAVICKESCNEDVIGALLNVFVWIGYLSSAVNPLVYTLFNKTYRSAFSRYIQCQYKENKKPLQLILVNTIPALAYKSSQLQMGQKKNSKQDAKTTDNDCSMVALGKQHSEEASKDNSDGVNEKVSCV
Description: 5-HT2A receptor binding assay ([125I]-DOI displacement, CHO-K1 membranes). The conditions noted are these: for Selectivity for 5-HT6 v. 5-HT2A: ratio of human 5-HT2A Ki to human 5-HT6 Ki. How it is done:
Cells from stable clonal cell lines expressing the corresponding receptor (5-HT6, 5-HT2A or 5-HT2B receptors) were washed with PBS with 0.02% EDTA. The cells were collected by centrifugation at 500 g for 10 min. at 4° C., washed with PBS and centrifuged (500 g, 10 min. 4° C.). The pellets were stored at −80° C. until use. For membrane preparation, the thawed cell pellet was resuspended in ice-cold sucrose buffer (0.25 M sucrose, 10 mM Hepes (pH 7.4), 1 mM Phenylmethylsulfonyl fluoride (PMSF) in DMSO, […] Pepstatin-A, 3 mM EDTA, 0.025% Bacitracin) and homogenized with a Branson Sonifier W-250 (Settings: Timer 4; Output Control 3; Duty Cycle constant; 2 to 3 cycles). Cell disruption was checked with the aid of a microscope. Remaining unbroken cells were pelleted at 1,000 g for 10 min. at 4° C. The sucrose buffer supernatant was then centrifuged at 60,000 g for 1 h at 4° C. (Beckman Ultrazentrifuge XL 80). The pellet was resuspended in 30 ml ice-cold Tris buffer (20 mM TRIS (pH 7.4), […] Pepstatin A, 0.1 mM PMSF, 3 mM EDTA) by pipetting through a 10 ml serological pipet and centrifuged for 1 h at 4° C. at 60,000 g. A final resuspension was performed in a small volume of ice-cold Tris buffer (see above) by pressing through a serological pipet followed by ultrasonic treatment with a Branson Sonifier W-250 (Settings: Timer 1; Output Control 3; Duty Cycle constant; 1 cycle). Protein concentration was determined (BCA-Kit; Pierce) and aliquots stored at −80° C. or in liquid nitrogen for long-term storage.
All receptor binding experiments were carried out in the corresponding assay buffer in a total volume of 200 μl in the presence of various concentrations of test compound (10^−5 M to 10^−9 M, tenfold serial dilution, duplicate determinations). The assays were terminated by filtration on polyethylenimine (PEI 0.1% or 0.3%) presoaked Packard Unifilter Plates (GF/C or GF/B) with a Tomtec MachIII U 96well-plate harvester. After the plates had been dried for 2 h at 55° C. in a drying chamber scintillation cocktail (BetaPlate Scint; PerkinElmer) was added. Radioactivity was measured in a Microbeta Trilux two hours after the addition of the scintillation mixture. Data derived from liquid scintillation counting were analyzed by iterative non-linear regression analysis with the use of the Statistical Analysis System (SAS): a program similar to “LIGAND” as described by Munson and Rodbard (Analytical Biochemistry 107, 220-239 (1980).
CHO-K1 cell membranes expressing h-5-HT2A receptor (Perkin Elmer ES-313-M400UA) were thawed, diluted in assay buffer (50 mM Tris-HCl, 5 mM MgCl2, 1 mM EGTA, pH 7.4) to a final membrane protein concentration of 25 μg/ml and homogenized by gentle vortexing. For the competition binding studies; 20 μl of varying concentrations of test compounds in assay buffer (or 20 μl of assay buffer), 80 μl of 0.1 nM [^125I]—R—O-DOI (2,5-dimethoxy-4-iodo-amphetamine) (Perkin Elmer NEX-255) were incubated with 100 μl of homogenized membranes (total volume 200 μl). Non-specific binding was determined in the presence of 10 μM (±)-DOI (Sigma D-101). After a 1 hr incubation at room temperature, the binding reaction was harvested (Tomtec Mach III U Harvester) through 96-well GF/C filter plates (Perkin Elmer) presoaked for 1 hr with 20 μl per well of 0.3% polyethylene-imine (PEI). Harvested plates were washed twice with ice-cold assay buffer and dried prior to addition of 35 μl scintillator (BetaplateScint, Perkin Elmer). The radioactivity was determined by liquid scintillation spectrometry in a MicroBeta (Perkin Elmer) plate counter.
Data derived from liquid scintillation counting were analyzed by iterative non-linear regression analysis with the use of the Statistical Analysis System (SAS): a program similar to “LIGAND” as described by Munson and Rodbard (Anal. Biochem. 1980, 107, 220-239). Fitting was performed according to formulae described by Feldman (Anal. Biochem. 1972, 48, 317-338). […]

The target of another series is T3, h-5-HT2B receptor (Homo sapiens, UniProt P41595).
T3 construct: purchased Perkin Elmer ES-314-M400UA; host or cells: CHO-K1
T3 sequence (P41595 whole entry): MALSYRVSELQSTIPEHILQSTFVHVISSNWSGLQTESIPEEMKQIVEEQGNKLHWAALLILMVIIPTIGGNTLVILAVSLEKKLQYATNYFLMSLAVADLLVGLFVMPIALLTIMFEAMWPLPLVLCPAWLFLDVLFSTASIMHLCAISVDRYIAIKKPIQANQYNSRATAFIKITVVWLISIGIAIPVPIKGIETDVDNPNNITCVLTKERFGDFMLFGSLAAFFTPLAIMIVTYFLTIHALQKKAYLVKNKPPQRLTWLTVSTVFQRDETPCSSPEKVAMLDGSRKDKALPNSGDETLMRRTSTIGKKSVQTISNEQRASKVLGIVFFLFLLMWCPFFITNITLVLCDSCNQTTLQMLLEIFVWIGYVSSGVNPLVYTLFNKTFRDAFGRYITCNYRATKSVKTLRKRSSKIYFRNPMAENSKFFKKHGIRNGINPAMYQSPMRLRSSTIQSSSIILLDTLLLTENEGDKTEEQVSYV
Description: 5-HT2B receptor binding assay ([125I]-DOI displacement, CHO-K1 membranes). How it is done: Cells from stable clonal cell lines expressing the corresponding receptor (5-HT6, 5-HT2A or 5-HT2B receptors) were washed with PBS with 0.02% EDTA. The cells were collected by centrifugation at 500 g for 10 min. at 4° C., washed with PBS and centrifuged (500 g, 10 min. 4° C.). The pellets were stored at −80° C. until use. For membrane preparation, the thawed cell pellet was resuspended in ice-cold sucrose buffer (0.25 M sucrose, 10 mM Hepes (pH 7.4), 1 mM Phenylmethylsulfonyl fluoride (PMSF) in DMSO, […] Pepstatin-A, 3 mM EDTA, 0.025% Bacitracin) and homogenized with a Branson Sonifier W-250 (Settings: Timer 4; Output Control 3; Duty Cycle constant; 2 to 3 cycles). Cell disruption was checked with the aid of a microscope. Remaining unbroken cells were pelleted at 1,000 g for 10 min. at 4° C. The sucrose buffer supernatant was then centrifuged at 60,000 g for 1 h at 4° C. (Beckman Ultrazentrifuge XL 80). […] Protein concentration was determined (BCA-Kit; Pierce) and aliquots stored at −80° C. or in liquid nitrogen for long-term storage.
as §1

Another series can be described thus: Rat microsome stability. Format: in vitro ADME. The conditions noted are these: rat microsomes, read-out: Rat microsome T1/2.
The nature of series [1]: Rat PK (0.05 mg/kg, iv), plasma and brain levels. Format: in vivo. The conditions noted are these: for Free B/P Ratio: free brain concentration divided by free plasma concentration.
The target in series [2] is 78 targets (CEREP) other than the 5-HT6 receptor. Description: CEREP panel of 78 targets. The conditions noted are these: all but the 5-HT2B and 5-HT2A receptors, read-out: Ki at ancillary targets. Format: binding.
The next series has as its target Rat 5-HT6 (Rattus norvegicus, UniProt P31388). In words: Rat 5-HT6 binding.
The next series addresses 5-HT2a (Homo sapiens, UniProt P28223). The conditions noted are these: background statement on the known PET ligand; cited from earlier work.

Each structure is given as a SMILES string. Where two headings read alike, the source gives them in different places.

T1 sequence (P50406 whole entry): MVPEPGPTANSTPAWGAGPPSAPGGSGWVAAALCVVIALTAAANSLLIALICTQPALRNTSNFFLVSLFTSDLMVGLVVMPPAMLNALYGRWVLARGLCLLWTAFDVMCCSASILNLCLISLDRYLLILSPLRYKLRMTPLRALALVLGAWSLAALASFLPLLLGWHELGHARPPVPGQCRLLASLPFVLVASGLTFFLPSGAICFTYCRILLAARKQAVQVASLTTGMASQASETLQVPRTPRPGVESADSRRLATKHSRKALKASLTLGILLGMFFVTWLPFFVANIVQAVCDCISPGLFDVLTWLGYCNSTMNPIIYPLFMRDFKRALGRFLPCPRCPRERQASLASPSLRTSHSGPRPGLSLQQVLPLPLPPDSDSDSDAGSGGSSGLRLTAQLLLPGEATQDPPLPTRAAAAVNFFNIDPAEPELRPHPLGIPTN
Sequence of 5-HT2a (P28223 whole entry): as the sequence (P28223 whole entry) above
Sequence of Rat 5-HT6 (P31388 whole entry): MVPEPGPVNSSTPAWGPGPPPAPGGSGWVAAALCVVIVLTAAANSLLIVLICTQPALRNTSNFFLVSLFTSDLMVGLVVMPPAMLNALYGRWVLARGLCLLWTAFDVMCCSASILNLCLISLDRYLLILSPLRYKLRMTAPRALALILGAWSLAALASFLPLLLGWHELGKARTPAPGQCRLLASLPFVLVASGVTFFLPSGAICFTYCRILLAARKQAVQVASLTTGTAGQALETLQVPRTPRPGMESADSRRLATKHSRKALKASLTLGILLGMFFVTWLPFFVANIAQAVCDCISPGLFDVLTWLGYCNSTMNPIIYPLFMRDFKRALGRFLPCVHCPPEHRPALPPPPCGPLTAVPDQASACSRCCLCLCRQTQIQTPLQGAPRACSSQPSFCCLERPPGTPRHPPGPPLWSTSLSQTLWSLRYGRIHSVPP

In general, Ki refers to a dissociation constant, usually derived from enzyme kinetics or from competition with a known ligand. On to `CN1CCC(c2cccc3cc(S(=O)(=O)c4ccccn4)cnc23)CC1` [Example 1, 8-(1-methylpiperidin-4-yl)-3-(pyridin-2-ylsulfonyl)quinoline], for which, on h-5-HT6 receptor, the affinity corresponds to a Ki of 0.22 nM. At h-5-HT2A receptor, the affinity, expressed as Ki, was 123 nM; the “selectivity for 5-HT6 over 5-HT2A” value is listed as 559 fold; the “Selectivity for 5-HT6 v. 5-HT2A” value stood at 559 x. Besides, on h-5-HT2B receptor, the Ki was found to be 144 nM and the “selectivity for 5-HT6 over 5-HT2B” value turned out to be 654.5 fold. In addition, the half-life in “Rat microsome stability” worked out at 1.73 h. For the same molecule, in series [1] (3 min after dose), the “Free [brain]” value was 21.5 ng/g, the “Plasma Conc.” value came out at 104.5 ng/mL and the “Free B/P Ratio” value stood at 0.21. Moreover, in [1] (5 min after dose), the “Free [brain]” value is on record as 23.1 ng/g, the “Plasma Conc.” value is reported as 83.5 ng/mL and the “Free B/P Ratio” value was 0.28. In [2], the Ki was greater than 1000 nM.

As to `[3H]C([3H])([3H])N1CCC(c2cccc3cc(S(=O)(=O)c4ccccn4)cnc23)CC1` [Example 2, 8-(1-([^3H]methyl)piperidin-4-yl)-3-(pyridin-2-ylsulfonyl)quinoline], for the setting “5 min after dose”, the “F. Cortex/Cer.” value is on record as 0.9, the Hippo./Cer. worked out at 1.06 and the Striatum/Cer. was found to be 0.81. Further, where the note is “40 min after dose”, the “F. Cortex/Cer.” value is 1.20, the Hippo./Cer. is reported as 1.07 and the Striatum/Cer. was determined as 1.31.

Take `CN1CCN(c2cccc3cc(S(=O)(=O)c4cccc(F)c4)cnc23)CC1` [GSK-215083, reference compound]: the affinity at h-5-HT6 receptor corresponds to a Ki of 0.34 nM. For the same molecule, at h-5-HT2A receptor, affinity was put at a Ki of 0.395 nM, the “selectivity for 5-HT6 over 5-HT2A” value amounted to 1.16 fold and the “Selectivity for 5-HT6 v. 5-HT2A” value amounted to 1.16 x. At Rat 5-HT6, this molecule yielded a Ki of 0.16 nM. The half-life in the series “Rat microsome stability” is 1.04 h.

Turning to `CN1CCN(c2cccc3cc(S(=O)(=O)c4cccc(F)c4)cnc23)CC1` [[^11C]GSK-215083], on 5-HT2a, the Ki is 0.395 nM.
